According to publication PMC9179882 (Cancers, 2022):

Key:
[1] = system: SW480 cells; test: Cell cycle analysis by propidium iodide flow cytometry; format: cell-based, human; settings: SW480, GA IC50 for 24 h
Protocol: Cell cycle analyses were carried out by flow cytometry with propidium iodide (PI) (P4864, Merck, Darmstadt, Germany). Cells (10^6) were seeded into 10 cm culture dishes and treated with GA IC50 for 24 h or with the vehicle DMSO as control. Cells were then fixed with ice-cold 70% ethanol on ice and stained with 0.04 mg/mL PI and 0.1 mg/mL ribonuclease A (19101, Qiagen, Hilden, Germany). Cell cycle distribution was determined by an analytical DNA flow cytometer (FACSVerse, BD Biosciences) with instrument settings on low mode and FlowJo software v10.
(§1) GA is widely present in the plant kingdom and largely found in different food sources. According to its cytotoxic activity (shown above), cell cycle analysis was performed on SW480 cells by FACS with propidium iodide staining (Figure 1C). After GA IC50 treatment for 24 h, the frequency of cells at different stages of the cell cycle changed with respect to non-treated cells (45.34% of cells at G1, 34.16% at S, 7.65% at G2/M). […] To explore this hypothesis, we determined the intracellular localization of nucleolar proteins by immunofluorescence of SW480 cells treated with GA IC50 for 6 h because we had previously observed that some DNA-binding compounds affect nucleolar organization. In particular, we analyzed three proteins that are indicative of nucleolus status, such as nucleolin (NCL), fibrillarin (FBL), and Pol I catalytic subunit A (POLR1A) (Figure 1D).

[2] = molecular target: 5′ETS G4; test: UV-vis titration, 5′ETS G4; format: binding; settings: UV-vis titration at 265 nm, 5′ETS G4, 25 °C, pH 7.0; read-out: dissociation constant (Kd)
Protocol: G4-oligonucleotides listed in Supplementary Table S3 were purchased from Integrated DNA Technologies (Clareville, IA, USA). All of them were dissolved in G4s buffer (10 mM potassium phosphate, 100 mM potassium chloride at pH 7.0), heated at 95 °C for 10 min, slowly cooled to RT, and stored at 4 °C.
UV-vis absorption spectra were registered in a Varian Cary 50 UV-vis spectrophotometer at 25 °C. Concentration of the prefolded G4 DNA was 5 μM in G4s buffer (10 mM potassium phosphate buffer containing 100 mM potassium chloride at pH 7.0). Once the DNA was placed in the cuvette, a concentrated solution of GA (1 mM) was routinely added, 1 μL each time, with a Hamilton syringe and subsequently mixed with a pipette. After each addition of the GA solution, a UV-vis spectrum was recorded. In total, 10 μL of GA solution were added, with a final ratio of 1:20 G4 DNA:GA. For the blank, the same experiment with the successive additions was repeated, beginning just with buffer in the cuvette. […] Dissociation constants (Kd) were evaluated at 265 nm using the following equation:(1) A=Am+(Aml-Am)×(M+L+Kd)−(M+L+Kd)^2−4×M×L/2×M where A is the absorbance signal, Am is the signal of DNA in absence of the ligand, Aml is the signal of DNA in presence of the ligand, M is the total concentration of DNA, L is the total concentration of ligand, and Kd is the dissociation constant.

[3] = system: CMYC (CD and UV-vis oligonucleotide) (DNA, G4) TGGGGAGGGTGGGGAGGGTGGGGAAGG; test: circular dichroism; settings: 100 mM KCl, 10 mM potassium phosphate; pH 7.0, 25 °C; 10 µM DNA, 100 µM GA; positive band decreased, no induced CD
[4] = system: SW480 cells; test: Immunofluorescence of nucleolar proteins (NCL, FBL, POLR1A); format: cell-based, human; settings: SW480, GA IC50 for 6 h
Protocol: Cells were seeded on 13 mm circular coverslips and placed in 24-well plates. After exposure to different experimental conditions, fixation was performed with 4% (v/v) paraformaldehyde (P6148, Merck, Darmstadt, Germany) for 10 min at room temperature (RT), permeabilization with 0.1% (v/v) Triton-X100 (T8787, Merck, Darmstadt, Germany) for 10 min and blocking with 10% bovine serum albumin (A7906, Merck, Darmstadt, Germany) containing 0.5% (v/v) Triton-X100 for 30 min at RT. Primary antibodies were incubated for 1 h at RT and secondary antibodies for 30 min at 4 °C in darkness. Finally, all coverslips were mounted onto slides (J2800AMNZ, Thermo scientific, Waltham, MA, USA), including DAPI (4′,6-diamidino-2-phenylindole) for nuclear counterstain. Images were acquired on a Confocal Zeiss LSM 710 inverted microscope with a 63× immersion objective. In a different manner, BG4 immunofluorescence was conducted as previously described. BG4 mean nuclear fluorescence intensity was quantified using Fiji software (N > 250). Antibodies used are listed in Supplementary Table S1.
as §1

Kd [2]: 148 µM
binding [3]: yes
SMILES: O=C(O)c1cc(O)c(O)c(O)c1 [Gallic acid, 3,4,5-trihydroxybenzoic acid]
% of cells at G2/M ([1]; non-treated 7.65%): 14.46%
% of cells at S ([1]; non-treated 34.16%): 43.82%
% of cells at G1 ([1]; non-treated 45.34%): 28.30%
nucleolar localization of POLR1A [4]: significant changes in POLR1A were not observed
nucleolar localization of fibrillarin (FBL) [4]: segregation of FBL to nucleolar periphery caps
nucleolar localization of nucleolin (NCL) [4]: translocation of NCL from the nucleolus to the nucleoplasm
